Experimental findings from ChEMBL document CHEMBL4616648, “Irijimasides A-E, Macrolide Glycosides from an Okeania sp. Marine Cyanobacterium” (J Nat Prod, 2020) are described below.

Data set [1] is filed under the species Mus musculus. The data set can be described thus: Inhibition of RANKL-induced osteoclastogenesis in mouse RAW264 cells assessed as reduction in TRAP activity incubated for 4 days. Type of data set: functional, cell-based.
A short description of data set [2]: Cytotoxicity against mouse RAW264 cells at 3 to 30 uM by MTT assay. It counts as cell-based. (In general: Tetrazolium assays rely on reduction of a dye to a coloured formazan, in cell work by metabolically active cells.)

`C=CCC/C=C/C=C/C1C/C(C)=C/[C@@H](OC)C[C@@H]2O[C@@](O)(CC(O[C@@H]3O[C@@H](C)[C@H](O)[C@@H](OC)[C@H]3OC)[C@@H]2C)[C@H](C)C(=O)O1` (stereo not given in full): the inhibition result in data set [1] was “Dose-dependent effect”. In data set [2], the Activity entry is on record as “Non-Toxic”.
With `C=CCC/C=C/C=C/C1C/C(C)=C/[C@@H](OC)C[C@@H]2O[C@@](O)(CC(O[C@@H]3O[C@@H](C)[C@H](O)[C@@H](O)[C@H]3OC)[C@@H]2C)[C@H](C)C(=O)O1` (stereo not given in full), the inhibition entry in data set [1] is “Dose-dependent effect”. The Activity result in data set [2] is given as “Non-Toxic”.
In the case of `C#CCCC/C=C/C=C/C1C/C(C)=C/[C@@H](OC)C[C@@H]2O[C@@](O)(CC(O[C@@H]3O[C@@H](C)[C@H](O)[C@@H](O)[C@H]3OC)[C@@H]2C)[C@H](C)C(=O)O1` (stereo not given in full), the inhibition result in data set [1] is “Dose-dependent effect”. Further, the Activity entry in data set [2] is given as “Non-Toxic”.
For the compound `C=CCC/C=C/C=C/C1C/C(C)=C/[C@@H](OC)C[C@H]2CC(O[C@@H]3O[C@@H](C)[C@H](O)[C@@H](OC)[C@H]3OC)C[C@](O)(O2)[C@H](C)C(=O)O1` (stereo not given in full), the inhibition result in data set [1] was “Dose-dependent effect”. Also, the Activity result in data set [2] is on record as “Non-Toxic”.
The corresponding values for `C=CCC/C=C/C=C/C1C/C(C)=C/[C@@H](OC)C[C@@H]2O[C@](O)(CC(=O)O1)CC(O[C@@H]1O[C@@H](C)[C@H](O)[C@@H](OC)[C@H]1OC)[C@@H]2C` (stereo not given in full) are “Dose-dependent effect” and “Non-Toxic”.
